# Laboratory results published in US20110212933A1, “Antiseptic Compositions for the Treatment of Infections” (priority 2008, published 2011).
# Several values for one entry are separate records, joined by “and”; a condition that tells them apart may be missing. Equal entries are not always repeated. Where two headings read alike, the source gives them in different places.
# Tests used:
# guinea pigs [1] = details: Positive Control animals, historical data, cited from earlier work; for Individual Bodyweight Initial: baseline
# guinea pigs [2] = details: 0.4 mL, historical data, cited from earlier work
# guinea pigs [3] = assay: Dermal sensitization test in guinea pigs (Buehler)
# T. mentagrophytes = system: T. mentagrophytes
# Protocol: Phenol Resistance Control: The phenol resistance of Trichophyton mentagrophytes was determined per the AOAC method. Final phenol dilutions were made the day of use from stock phenol within manufacturer's stability specification.
# S. cholerasuis = system: S. cholerasuis
# Protocol: (§1) Phenol Resistance Control: The phenol resistance of the test organisms were determined per the AOAC method.
# (§2) Final phenol dilutions were made the day of use from stock phenol within manufacturer's stability specification.
# S. aureus = system: S. aureus
# Protocol: as §1, §2
# P. aeruginosa = system: P. aeruginosa
# Protocol: as §1, §2
# [4] = historical positive naive control animals, 0.04% in acetone
# [5] = Dilution 1:60, Exposure Time 5 Minutes
# [6] = Dilution 1:60, Exposure Time 10 Minutes
# [7] = Dilution 1:70, Exposure Time 5 Minutes
# [8] = Dilution 1:70, Exposure Time 10 Minutes
# [9] = Dilution 1:90, Exposure Time 5 Minutes
# [10] = Dilution 1:90, Exposure Time 10 Minutes
# [11] = Dilution 1:90, Exposure Time 15 Minutes
smiles,measurement,setting,value
"O=[N+]([O-])c1ccc(Cl)c([N+](=O)[O-])c1 [DNCB, 1-Chloro-2,4-Dinitrobenzene]",Individual Bodyweight Initial,guinea pigs [1]; female guinea pigs,393 g and 404 g and 415 g and 411 g and 408 g and 428 g and 372 g
same,Individual Bodyweight Initial,guinea pigs [1]; male guinea pigs,406 g (2×) and 379 g and 413 g and 423 g and 408 g and 386 g and 407 g
same,Individual Bodyweight Day After Challenge,guinea pigs [1]; female guinea pigs,568 g and 660 g and 581 g and 536 g and 591 g and 544 g and 609 g
same,Individual Bodyweight Day After Challenge,guinea pigs [1]; male guinea pigs,579 g and 544 g and 600 g and 618 g and 668 g and 551 g and 639 g and 599 g
same,Preliminary Irritation Testing Score,guinea pigs [2]; Concentration 0.02% w/w in acetone,0
same,Preliminary Irritation Testing Score,guinea pigs [2]; Concentration 0.03% w/w in acetone,0 and 0.5
same,Preliminary Irritation Testing Score,guinea pigs [2]; Concentration 0.04% w/w in acetone,0 and 0.5
same,"erythema score, induction phase","guinea pigs [3]; historical positive control animals, 0.08% in 80% aqueous ethanol",0.5-3
same,sites with very faint erythema (0.5) 24 hours after challenge,guinea pigs [3]; [4],two
same,time for irritation to clear from affected sites,guinea pigs [3]; [4],≤ 48 h
"Oc1ccccc1 [Phenol, phenol]","Phenol Resistance, growth in subculture",T. mentagrophytes; [5],0
same,"Phenol Resistance, growth in subculture",T. mentagrophytes; [6],0
same,"Phenol Resistance, growth in subculture",T. mentagrophytes; [7],+
same,"Phenol Resistance, growth in subculture",T. mentagrophytes; [8],+
same,"Phenol Resistance, growth in subculture",S. cholerasuis; [9],+
same,"Phenol Resistance, growth in subculture",S. cholerasuis; [10],0
same,"Phenol Resistance, growth in subculture",S. cholerasuis; [11],0
same,"Phenol Resistance, growth in subculture","S. cholerasuis; Dilution 1:100, Exposure Time 5 Minutes",+
same,"Phenol Resistance, growth in subculture","S. cholerasuis; Dilution 1:100, Exposure Time 10 Minutes",+
same,"Phenol Resistance, growth in subculture","S. cholerasuis; Dilution 1:100, Exposure Time 15 Minutes",0
same,"Phenol Resistance, growth in subculture",S. aureus; [5],+
same,"Phenol Resistance, growth in subculture",S. aureus; [6],+
same,"Phenol Resistance, growth in subculture","S. aureus; Dilution 1:60, Exposure Time 15 Minutes",0
same,"Phenol Resistance, growth in subculture",S. aureus; [7],+
same,"Phenol Resistance, growth in subculture",S. aureus; [8],+
same,"Phenol Resistance, growth in subculture","S. aureus; Dilution 1:70, Exposure Time 15 Minutes",+
same,"Phenol Resistance, growth in subculture","P. aeruginosa; Dilution 1:80, Exposure Time 5 Minutes",0
same,"Phenol Resistance, growth in subculture","P. aeruginosa; Dilution 1:80, Exposure Time 10 Minutes",0
same,"Phenol Resistance, growth in subculture","P. aeruginosa; Dilution 1:80, Exposure Time 15 Minutes",0
same,"Phenol Resistance, growth in subculture",P. aeruginosa; [9],+
same,"Phenol Resistance, growth in subculture",P. aeruginosa; [10],+
same,"Phenol Resistance, growth in subculture",P. aeruginosa; [11],+
